System: Col-0 plants
Experiment: growth of wild type plants in the presence of 2,3 butanediol
Format: in vivo, Arabidopsis thaliana
From the text: Top left: phenotypes of Col-0 (wild type; Arabidopsis thaliana) and genetically modified plants expressing the transgenic PROTON (H+-) pyrophosphatase in all tissues (AVP1) or in phloem cells only (pCoY), where average yields are AVP1>pCoY>Col-0 (FIG. 7). Left center: differential root acidification capacity of each genotype. Left bottom: 16S rRNA based composition of the root associated microbiomes (RAMs) through principal component analyses. Middle: Metabolomic profile of root exudates of the three plant genotypes, depicted as a heat map of relative concentration (each column a pools n>3 plants). Top right: Enrichment of proportional abundance of query and control pathways in the metagenome of rhizosphere RAMs. Middle right: Effect of exposure to 250 μM 2,3-butanediol on root development of Col-0 plants. Bottom right: mechanistic model for plant-microbe interactions at the base of phenotype enhancement and transferability.
To determine how the plant genotype can be made extensive to the RAM, we made use of a second mutant plant (pCoYMV::AVP1; pCoY hereafter), which overexpresses the H+-PPase in companion cells and sieve elements of the plant's phloem (22). […] We then assessed a second potential driver: root exudates. We determined the root exudate profiles, or exometabolome (23), of the three genotypes when grown under sterility on agar-solidified medium. […]

SMILES: CC(O)C(C)O (centres unmarked) [2,3 butanediol, 2,3-butanediol]
- phenotype in root development of wild type plants (wild type (Col-0) plants exposed to 250 μM 2,3-butanediol (FIG. 3)): AVP1-like, high yield phenotypes
- phenotype in shoots of wild type plants (wild type (Col-0) plants grown in the presence of 2,3 butanediol, 250 μM per FIG. 3 legend): AVP1-like, high yield phenotypes

Reference: US20250270576A1, “AGRICULTURAL COMPOSITIONS AND METHODS OF USING THE SAME” (Arizona Board of Regents on behalf of Arizona State …, priority 2021, published 2025)
